Drawing on the Deep4Chem optical property database, this text covers emission maximum for 36 compounds.

The nature of this data set: solvent given as SMILES.

For `CCCCCCCCCCCCC(CCCCCCCCCC)Cn1c2cc(C=C(C#N)C#N)c3cccc4c5cccc6c(C=C(C#N)C#N)cc1c(c65)c2c34` (configuration not stated), the emission maximum (in C1CCCCC1) turned out to be 603 nm, the emission maximum (in CC#N) came out at 641 nm, the emission maximum (in Cc1ccccc1) was found to be 623 nm and the emission maximum (in ClCCl) is 635 nm.

`Cc1c(C)c(N2c3ccccc3CCc3ccccc32)c(C)c(C)c1-c1nc(-c2ccccc2)nc(-c2ccccc2)n1` showed an emission maximum (in Cc1ccccc1) of 457.94 nm.

With `O=C1OC(=O)c2cc(Oc3ccccc3)c3c4ccc5c6c(cc(Oc7ccccc7)c(c7ccc1c2c73)c64)C(=O)OC5=O`, the emission maximum is, setting by setting: (in C1CCOC1) 560 nm; (in CN1CCCC1=O) 595 nm; (in CN(C)C=O) 572 nm.

In turn, `COc1ccc(C2=C(c3ccc(OC)cc3)C(C)(C)c3ccccc32)cc1` displayed an emission maximum (in C1CCCCC1) of 391 nm.

`CCOC(=O)CN1C(=O)C2=C(c3ccccc3)N(CC(=O)OCC)C(=O)C2=C1c1ccccc1`: the emission maximum worked out at 512 nm (in CC#N), 519 nm (in CS(C)=O) and 520 nm (in Cc1ccccc1).

Compound `CCOC(=O)c1c(-c2cc3ccccc3oc2=O)nn(-c2ccc(Cl)cc2)c1C(=O)OCC` returned an emission maximum (in ClCCl) of 402 nm.

With `COc1ccc(-c2cc3c(ccc4sc5ccc6sccc6c5c43)s2)cc1`, the emission maximum (in ClCCl) is 409 nm.

As to `CCCCCCC1(CCCCCC)c2cc(-c3ccc(-c4ccc(-c5ccc(-c6ccc7c(c6)C(CCCCCC)(CCCCCC)c6cc(-n8c9ccc(-n%10c%11ccccc%11c%11ccccc%11%10)cc9c9cc(-n%10c%11ccccc%11c%11ccccc%11%10)ccc98)ccc6-7)s5)c5nsnc45)s3)ccc2-c2ccc(-n3c4ccc(-n5c6ccccc6c6ccccc65)cc4c4cc(-n5c6ccccc6c6ccccc65)ccc43)cc21`, the emission maximum (in ClCCl) is reported as 608 nm.

Turning to `COc1cc2c3cc(OC)c(OC)cc3c3cc4c(C)cc(=O)oc4cc3c2cc1OC`, the emission maximum by setting is: (in C1CCOC1) 489 nm; (in CO) 556 nm; (in CS(C)=O) 519 nm; (in Cc1ccccc1) 463 nm; (in ClC(Cl)Cl) 491 nm.

Compound `c1ccc2c3c(ccc2c1)C1(c2cc(-c4ccc5ccc6cccc7ccc4c5c67)ccc2-c2ccc(-c4ccc5ccc6cccc7ccc4c5c67)cc21)c1ccc2ccccc2c1O3` came in with an emission maximum (in ClC(Cl)Cl) of 422 nm.

In the case of `c1ccc(-n2c(-c3ccc(-c4ccc(-c5ccc(-c6nc7c8ccccc8c8ccccc8c7n6-c6ccccc6)cc5)cc4)cc3)nc3ccccc32)cc1`, the emission maximum is, setting by setting: (in C1CCOC1) 435 nm; (in C1COCCO1) 414 nm; (in CC#N) 447 nm; (in CCCCCC) 404 nm; (in CCCCOCCCC) 411 nm; (in CCN(CC)CC) 409 nm. For the same compound, the emission maximum is, setting by setting: (in CCOC(C)=O) 425 nm; (in CCOCC) 427 nm; (in CN(C)C=O) 447 nm; (in Cc1ccccc1) 413 nm; (in ClC(Cl)Cl) 427 nm; (in ClC=C(Cl)Cl) 417 nm. For the same compound, the emission maximum (in ClCCl) is recorded as 432 nm.

Compound `CC1=C(/C=C/c2ccccc2)C2=Cc3c(/C=C/c4ccccc4)c(C)c(C)n3[B-](F)(F)[N+]2=C1C` returned an emission maximum (in CC#N) of 589 nm.

In turn, `F[B-]1(F)n2c(cc3c4ccccc4c4ccccc4c32)-c2ccc3ccccc3[n+]21` gave an emission maximum (in ClCCl) of 585 nm.

Turning to `CC(C)(C)c1ccc(-c2nc3c4ccc(-c5cc6ccccc6c6ccccc56)cc4c4cc(-c5cc6ccccc6c6ccccc56)ccc4c3n2-c2ccc(C(C)(C)C)cc2)cc1`, the emission maximum runs as follows: (in C1CCOC1) 388 nm; (in C1COCCO1) 386 nm; (in CC#N) 405 nm; (in CCCCCC) 382 nm; (in CCCCOCCCC) 384 nm; (in CCN(CC)CC) 384 nm. The emission maximum was determined as 388 nm (in CCOC(C)=O); 384 nm (in CCOCC); 404 nm (in CN(C)C=O); 385 nm (in Cc1ccccc1); 388 nm (in ClC=C(Cl)Cl); 404 nm (in ClCCl).

Regarding `COCCN(CCOC)c1ccc(/C=C/c2sc3c4nc(C)sc4ccc3[n+]2C)cc1`, the emission maximum was determined as 601 nm (in CO) and 601 nm (in ClC(Cl)Cl).

For the compound `CC1(C)c2ccccc2N(c2ccc(-c3ccc4c(c3)c3cc(-c5ccc(N6c7ccccc7C(C)(C)c7ccccc76)cc5)ccc3c3nc(C#N)c(C#N)nc43)cc2)c2ccccc21`, the emission maximum is, setting by setting: (in C1COCCO1) 668.71 nm; (in CCCCCC) 507.36 nm; (in Cc1ccccc1) 612 nm; (in O=P(c1ccccc1)(c1ccccc1)c1cccc(-c2cc(-n3c4ccccc4c4ccccc43)cc(-n3c4ccccc4c4ccccc43)c2)n1) 594 nm.

As to `COC(=O)CNC(=O)c1nc2c(N(C)C)nc(N(C)C)nc2n1Cc1ccccc1`, the emission maximum is reported as 397 nm (in C1COCCO1), 409 nm (in CC#N), 429 nm (in CO) and 407 nm (in ClCCl).

In turn, `CC1(C)C(/C=C/C2=C(Oc3ccc(CCN=C=S)cc3)C(=C/C=C3/N(CCCS(=O)(=O)[O-])c4ccccc4C3(C)C)/CCC2)=[N+](CCCS(=O)(=O)[O-])c2ccccc21` came in with an emission maximum (in CO) of 794 nm.

In turn, `CCOC(=O)c1sc(-c2ccc(-c3cc(C4CC4)c(C(=O)OCC)s3)s2)cc1C1CC1` returned an emission maximum (in ClCCl) of 448 nm.

For `c1ccc2c(c1)ccc1ccccc12`, the emission maximum (in Cc1ccccc1) amounted to 350 nm.

`N#Cc1cc(-c2ccccc2)c(N2c3ccccc3Oc3ccccc32)c(-c2ccccc2)c1` yielded an emission maximum (in C1CCCCC1) of 455 nm.

As for `F[B-]1(F)OC(C#Cc2ccccc2)=CC(c2ccccc2)=[O+]1`, the emission maximum (in ClCCl) came to 420 nm.

As to `O=c1cccc2n1C[C@@H]1CNC[C@H]2C1`, the emission maximum (in CC#N) turned out to be 380 nm.

Turning to `Cc1ccc(-c2cc(-c3ccccc3)c(C#N)c(=S)[nH]2)cc1`, the emission maximum is recorded as 504 nm (in C1CCCCC1); 506 nm (in C1COCCO1); 488 nm (in CC#N); 503 nm (in CCCCO); 490 nm (in CCCO); 462 nm (in CCO). For the same compound, the emission maximum was 522 nm (in CCOC(C)=O), 524 nm (in CCOCC), 502 nm (in CN(C)C=O) and 508 nm (in ClC(Cl)(Cl)Cl).

On to `COc1ccc(-c2ccc(/C=C/c3cnc4ccccc4n3)cc2)cc1`, for which the emission maximum (in ClCCl) was 485 nm.

For the compound `CC(C)(C)c1ccc2c(c1)c1cc(C(C)(C)C)ccc1n2-c1cccc(-c2nc(-c3cccc(-n4c5ccc(C(C)(C)C)cc5c5cc(C(C)(C)C)ccc54)c3)nc(-c3cccc(P(=O)(c4ccccc4)c4ccccc4)c3)n2)c1`, the emission maximum was determined as 514.41 nm (in C1CCOC1); 572.13 nm (in CC#N); 552.3 nm (in CC(C)=O); 532.99 nm (in CN(C)C=O); 481.21 nm (in Cc1ccccc1); 511.48 nm (in ClC(Cl)Cl). The emission maximum came out at 532.99 nm (in ClCCl) and 484 nm (in O=P(c1ccccc1)(c1ccccc1)c1ccccc1Oc1ccccc1P(=O)(c1ccccc1)c1ccccc1).

Consider `CN(C)c1ccc(/C=C/C=C2\CC/C(=C\C=C\c3ccc(N(C)C)cc3)C2=O)cc1`, for which the emission maximum is, setting by setting: (in C1CCCCC1) 500 nm; (in CC#N) 717 nm; (in CC(C)=O) 694 nm; (in CC(C)O) 718 nm; (in CCCCCC) 496 nm; (in CCCCO) 739 nm. The emission maximum runs as follows: (in CCCO) 740 nm; (in CCO) 744 nm; (in CCOC(C)=O) 644 nm; (in CCOCC) 586 nm; (in CN(C)C=O) 715 nm; (in CO) 735 nm. The emission maximum turned out to be 727 nm (in CS(C)=O); 553 nm (in Cc1ccccc1); 537 nm (in ClC(Cl)(Cl)Cl); 672 nm (in ClCCl); 764 nm (in OCC(F)(F)F); 568 nm (in S=C=S). Besides, the emission maximum is, setting by setting: (in c1ccccc1) 567 nm; (in c1ccncc1) 681 nm.

In the case of `CCCCN(CCCC)c1ccc2c#cc3cc4c#cc5ccc(C(F)(F)F)cc5c#cc#cc5cc(C(F)(F)F)ccc5c#cc4cc3c#cc3ccc(N(CCCC)CCCC)cc3c#cc#cc2c1`, the emission maximum by setting is: (in ClCCl) 554 nm; (in c1ccccc1) 504 nm.

For `O=C([O-])c1ccc(C(=O)[O-])c(C2=c3cc4c5c(c3Oc3c2cc2c6c3CCCN6CCC2)CCC[N+]=5CCC4)c1`, the emission maximum is, setting by setting: (in CCO) 596 nm; (in O) 603 nm.

The compound `CC(C)(C)c1cc2c3c(c1)-c1cccc4c1N(B3N1c3ccccc3Sc3cccc-2c31)c1ccccc1S4` yielded an emission maximum (in C1CCOC1) of 731 nm.

The compound `c1csc(-c2nc3ccccc3c3cc4ccccn4c23)c1` yielded an emission maximum (in CS(C)=O) of 508 nm.

`c1ccc(-c2nnc(-c3cc(-n4c5ccccc5c5ccccc54)c(-n4c5ccccc5c5ccccc54)cc3-c3nnc(-c4ccccc4)o3)o2)cc1` had an emission maximum (in CC#N) of 525.15 nm, an emission maximum (in Cc1ccccc1) of 466 nm and an emission maximum (in ClCCl) of 500.52 nm.

In turn, `C[Si](C)(C)C#CC#Cc1ccc2c3cccc4cccc(c5cccc1c52)c43` returned an emission maximum (in C1CCCCC1) of 477.08 nm.

`Cc1cc2nc3c(=O)n(C)c(=O)nc-3n(C)c2cc1C` yielded an emission maximum (in CC#N) of 531 nm.

In the case of `CCCN1c2ccccc2Sc2cc(/C=C\c3cc(=O)oc4cc(O)ccc34)ccc21`, for the setting “in ClC(Cl)Cl”, the emission maximum amounted to 631 nm.

In the case of `CCN(CC)c1ccc(/N=N/c2nc3ccc(Br)cc3s2)cc1`, the emission maximum was determined as 580 nm (in CC#N) and 578 nm (in ClCCl).
